Assay type in all cases: biochemical
The target of one assay is CDK4/CCND3 (Homo sapiens, UniProt P11802). As to the kind of experiment: CDK4 homogeneous time-resolved fluorescence (HTRF) kinase assay. As to conditions: CDK4/CCND. An outline of the steps:
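Compounds were preincubated with 1.5 nM CDK4/CCND3 for 20 min at 23 °C in HEPES buffer (pH not given), then reacted 60 min with 1 mM ATP and 50 nM ULight-4E-BP1 (Thr37/46) peptide. EDTA stop, Eu-anti-phospho-4E-BP1 detection; 665/615 nm ratio; IC50 from 11-point half-log titrations from 10 μM.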

The next assay deals with CDK2/CCNE1 (Homo sapiens, UniProt P24941). Put plainly: CDK2 homogeneous time-resolved fluorescence (HTRF) kinase assay. The conditions noted are these: CDK2/CCNE. An outline of the steps: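 3 nM CDK2/CCNE1 was preincubated with compound for 20 min at 23 °C in HEPES buffer (pH not stated), then reacted 60 min with 1 mM ATP and 50 nM ULight-4E-BP1 (Thr37/46) peptide. After EDTA stop, Eu-anti-phospho-4E-BP1 antibody (2 nM) was added for 60 min and TR-FRET read at 665 nm.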

A further assay concerns the target CDK1/CCNB1 (Homo sapiens, UniProt P06493). Put plainly: CDK1 homogeneous time-resolved fluorescence (HTRF) kinase assay. The conditions noted are these: CDK1/CCNB. The essentials:
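Compounds, titrated 11 points in half-log steps typically from 10 μM, were incubated with enzyme for 20 min before ATP (1 mM) and ULight-labelled eIF4E-binding protein 1 peptide (50 nM) started a 60-min reaction at 23 °C. Phosphopeptide was detected by europium-antibody TR-FRET and IC50 values were derived.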

The target in a further assay is CDK6/CCND1 (Homo sapiens, UniProt Q00534). Put plainly: CDK6 homogeneous time-resolved fluorescence (HTRF) kinase assay. As to conditions: CDK6/CCND, 1 mM ATP. The essentials:
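1 nM enzyme, 1 mM ATP, 50 nM ULight-4E-BP1 (Thr37/46) peptide, 1% DMSO; 20 min compound preincubation, 60 min reaction, 23 °C. EDTA stop, 2 nM Eu-anti-phospho-4E-BP1 antibody 60 min. TR-FRET 665 nm (or 665/615 ratio); IC50 from 11-point half-log titration, top 10 μM.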

[1] abbreviates: >250 nM, read-out: CDK4/CCND IC50, >250 nM.
Setting [2] is: <25 nM, read-out: CDK2/CCNE IC50, <25 nM.
Where [3] appears, read: >250 nM, read-out: CDK1/CCNB IC50 >250 nM.
Where [4] appears, read: >250 nM, read-out: CDK6/CCND IC50, >250 nM.
Setting [5] is: 25-250 nM, read-out: CDK4/CCND IC50, 25-250 nM.
Setting [6] is: 25-250 nM, read-out: CDK1/CCNB IC50, 25-250 nM.
Where [7] appears, read: 25-250 nM, read-out: CDK6/CCND IC50, 25-250 nM.
[8] abbreviates: >250 nM, read-out: CDK2/CCNE IC50, >250 nM.
Where [9] appears, read: 25-250 nM, read-out: CDK2/CCNE IC50, 25-250 nM.

The record followed here is patent US20260325533A1, “CDK INHIBITOR COMPOUNDS” (ALEKSIA THERAPEUTICS, INC., priority 2023, published 2026).

Where two headings read alike, the source gives them in different places.

CDK1/CCNB1, sequence (P06493 whole entry): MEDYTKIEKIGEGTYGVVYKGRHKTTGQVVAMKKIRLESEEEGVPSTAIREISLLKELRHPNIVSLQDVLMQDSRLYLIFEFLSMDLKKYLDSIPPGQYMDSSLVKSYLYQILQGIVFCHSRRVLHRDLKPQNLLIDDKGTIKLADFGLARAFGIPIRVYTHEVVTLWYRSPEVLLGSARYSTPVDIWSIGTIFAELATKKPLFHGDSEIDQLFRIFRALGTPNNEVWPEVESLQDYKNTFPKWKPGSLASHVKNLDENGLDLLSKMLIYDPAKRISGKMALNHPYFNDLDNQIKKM
CDK1/CCNB1, sequence (P14635 whole entry partner): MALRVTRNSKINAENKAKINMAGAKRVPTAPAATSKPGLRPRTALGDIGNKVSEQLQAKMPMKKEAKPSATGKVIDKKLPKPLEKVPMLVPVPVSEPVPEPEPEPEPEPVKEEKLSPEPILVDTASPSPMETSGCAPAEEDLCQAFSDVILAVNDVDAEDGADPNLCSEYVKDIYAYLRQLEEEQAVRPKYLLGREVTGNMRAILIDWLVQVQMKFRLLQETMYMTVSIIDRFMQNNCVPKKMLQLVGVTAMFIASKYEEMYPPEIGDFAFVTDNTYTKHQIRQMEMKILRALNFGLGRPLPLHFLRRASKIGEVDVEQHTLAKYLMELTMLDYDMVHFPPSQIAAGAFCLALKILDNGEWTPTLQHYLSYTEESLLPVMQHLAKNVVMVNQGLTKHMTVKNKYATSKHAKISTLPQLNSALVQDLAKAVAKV
CDK4/CCND3, sequence (P11802 whole entry): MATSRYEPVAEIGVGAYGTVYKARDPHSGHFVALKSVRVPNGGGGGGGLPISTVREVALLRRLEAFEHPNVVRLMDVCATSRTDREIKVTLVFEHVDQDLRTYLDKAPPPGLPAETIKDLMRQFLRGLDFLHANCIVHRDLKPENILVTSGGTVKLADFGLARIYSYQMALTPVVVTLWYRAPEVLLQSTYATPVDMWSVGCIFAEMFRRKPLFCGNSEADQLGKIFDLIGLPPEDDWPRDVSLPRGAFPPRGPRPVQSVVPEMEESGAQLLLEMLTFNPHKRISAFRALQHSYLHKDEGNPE
CDK4/CCND3, sequence (P30281 whole entry partner): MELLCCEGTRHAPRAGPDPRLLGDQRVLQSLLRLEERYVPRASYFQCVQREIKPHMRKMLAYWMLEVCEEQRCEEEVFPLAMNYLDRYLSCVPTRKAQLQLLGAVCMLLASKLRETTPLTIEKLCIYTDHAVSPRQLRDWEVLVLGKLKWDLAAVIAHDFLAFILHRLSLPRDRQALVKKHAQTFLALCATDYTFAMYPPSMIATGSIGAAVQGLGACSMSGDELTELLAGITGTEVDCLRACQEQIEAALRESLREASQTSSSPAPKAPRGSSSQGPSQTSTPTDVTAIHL
CDK6/CCND1, sequence (Q00534 whole entry): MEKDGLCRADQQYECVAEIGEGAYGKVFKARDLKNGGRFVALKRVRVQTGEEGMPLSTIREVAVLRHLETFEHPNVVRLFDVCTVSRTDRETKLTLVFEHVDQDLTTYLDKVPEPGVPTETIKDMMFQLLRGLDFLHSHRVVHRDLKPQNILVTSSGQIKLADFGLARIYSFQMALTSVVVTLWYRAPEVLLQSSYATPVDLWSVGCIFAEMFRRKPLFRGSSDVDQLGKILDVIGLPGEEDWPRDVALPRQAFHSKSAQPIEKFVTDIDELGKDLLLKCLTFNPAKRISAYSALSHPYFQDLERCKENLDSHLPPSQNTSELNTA
CDK6/CCND1, sequence (P24385 whole entry partner): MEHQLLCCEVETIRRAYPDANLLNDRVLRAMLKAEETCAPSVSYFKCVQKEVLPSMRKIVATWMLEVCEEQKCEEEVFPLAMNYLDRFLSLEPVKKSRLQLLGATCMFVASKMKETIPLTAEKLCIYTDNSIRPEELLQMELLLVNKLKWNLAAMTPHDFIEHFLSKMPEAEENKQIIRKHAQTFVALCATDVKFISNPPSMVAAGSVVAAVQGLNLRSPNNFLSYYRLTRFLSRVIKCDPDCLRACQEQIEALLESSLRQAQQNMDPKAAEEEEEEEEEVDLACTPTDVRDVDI

`COc1cc(S(C)(=O)=O)ccc1Nc1cc2c(-c3ccc4c(cnn4CC(C)(C)O)c3C)nccc2cn1` [Ex 838, 1-(5-(7-((2-methoxy-4-(methylsulfonyl)phenyl)amino)-2,6-naphthyridin-1-yl)-4-methyl-1H-indazol-1-yl)-2-methylpropan-2-ol]: the IC50 is greater than 0.25 µM at CDK4/CCND3 (setting [1]), less than 0.025 µM on CDK2/CCNE1 (setting [2]), greater than 0.25 µM on CDK1/CCNB1 (setting [3]) and greater than 0.25 µM on CDK6/CCND1 (setting [4]).
Consider `Cc1c(-c2nccc3cnc(Nc4ccc(NS(=O)(=O)c5cccnc5)cc4)cc23)ccc2c1cnn2CC(C)(C)O` [Ex 839, N-(4-((5-(1-(2-hydroxy-2-methylpropyl)-4-methyl-1H-indazol-5-yl)-2,6-naphthyridin-3-yl)amino)phenyl)pyridine-3-sulfonamide], for which the IC50 at CDK4/CCND3 (setting [5]) was 0.025 to 0.25 µM; on CDK2/CCNE1 (setting [2]) it was less than 0.025 µM; at CDK1/CCNB1 (setting [6]), 0.025 to 0.25 µM; on CDK6/CCND1 (setting [7]), 0.025 to 0.25 µM.
Turning to `C[C@@H]1CN(C)CCN1c1cc(Nc2cc3c(C#Cc4ccc(=O)[nH]n4)nccc3cn2)cnc1O` [Ex 840, (R)-6-((7-((5-(2,4-dimethylpiperazin-1-yl)-6-hydroxypyridin-3-yl)amino)-2,6-naphthyridin-1-yl)ethynyl)pyridazin-3(2H)-one], the IC50 on CDK4/CCND3 (setting [1]), on CDK2/CCNE1 (setting [8]), at CDK1/CCNB1 (setting [3]) and on CDK6/CCND1 (setting [4]) was greater than 0.25 µM in each case.
As to `Cc1ccnc(NS(=O)(=O)c2ccc(Nc3cc4c(-c5ccc6c(cnn6CC(C)(C)O)c5C)nccc4cn3)cc2)c1` [Ex 841, 4-((5-(1-(2-hydroxy-2-methylpropyl)-4-methyl-1H-indazol-5-yl)-2,6-naphthyridin-3-yl)amino)-N-(4-methylpyridin-2-yl)benzenesulfonamide], the IC50 on CDK4/CCND3 (setting [5]) was 0.025 to 0.25 µM; at CDK2/CCNE1 (setting [2]), less than 0.025 µM; at CDK1/CCNB1 (setting [3]), greater than 0.25 µM; on CDK6/CCND1 (setting [7]), 0.025 to 0.25 µM.
`Cc1c(-c2nccc3cnc(Nc4ccc(S(=O)(=O)Nc5ccc(N6CCOCC6)nn5)cc4)cc23)ccc2c1cnn2CC(C)(C)O` [Ex 842, 4-((5-(1-(2-hydroxy-2-methylpropyl)-4-methyl-1H-indazol-5-yl)-2,6-naphthyridin-3-yl)amino)-N-(6-morpholinopyridazin-3-yl)benzenesulfonamide]: the IC50 on CDK4/CCND3 (setting [5]) was 0.025 to 0.25 µM; at CDK2/CCNE1 (setting [2]) it was less than 0.025 µM; on CDK1/CCNB1 (setting [6]), 0.025 to 0.25 µM; at CDK6/CCND1 (setting [7]), 0.025 to 0.25 µM.
Turning to `Cc1nn(C)cc1S(=O)(=O)Nc1ccc(Nc2cc3c(-c4ccc5c(cnn5CC(C)(C)O)c4C)nccc3cn2)cc1` [Ex 843, N-(4-((5-(1-(2-hydroxy-2-methylpropyl)-4-methyl-1H-indazol-5-yl)-2,6-naphthyridin-3-yl)amino)phenyl)-1,3-dimethyl-1H-pyrazole-4-sulfonamide], the IC50 on CDK4/CCND3 (setting [5]) was 0.025 to 0.25 µM; on CDK2/CCNE1 (setting [2]), less than 0.025 µM; on CDK1/CCNB1 (setting [3]) it was greater than 0.25 µM; at CDK6/CCND1 (setting [7]), 0.025 to 0.25 µM.
For `Cc1c(-c2nccc3cnc(Nc4ccc(S(C)(=O)=O)c(C(F)(F)F)c4)cc23)ccc2c1cnn2CC(C)(C)O` [Ex 844, 2-methyl-1-(4-methyl-5-(7-((4-(methylsulfonyl)-3-(trifluoromethyl)phenyl)amino)-2,6-naphthyridin-1-yl)-1H-indazol-1-yl)propan-2-ol], the IC50 is greater than 0.25 µM on CDK4/CCND3 (setting [1]), 0.025 to 0.25 µM on CDK2/CCNE1 (setting [9]), greater than 0.25 µM at CDK1/CCNB1 (setting [3]) and greater than 0.25 µM on CDK6/CCND1 (setting [4]).
Turning to `Cc1cc(S(C)(=O)=O)ccc1Nc1cc2c(-c3ccc4c(cnn4CC(C)(C)O)c3C)nccc2cn1` [Ex 845, 2-methyl-1-(4-methyl-5-(7-((2-methyl-4-(methylsulfonyl)phenyl)amino)-2,6-naphthyridin-1-yl)-1H-indazol-1-yl)propan-2-ol], the IC50 on CDK4/CCND3 (setting [1]) is greater than 0.25 µM; at CDK2/CCNE1 (setting [2]), less than 0.025 µM; on CDK1/CCNB1 (setting [3]) it was greater than 0.25 µM; on CDK6/CCND1 (setting [7]) it was 0.025 to 0.25 µM.
Take `Cc1c(-c2nccc3cnc(Nc4ccc(S(C)(=O)=O)cc4F)cc23)ccc2c1cnn2CC(C)(C)O` [Ex 846, 1-(5-(7-((2-fluoro-4-(methylsulfonyl)phenyl)amino)-2,6-naphthyridin-1-yl)-4-methyl-1H-indazol-1-yl)-2-methylpropan-2-ol]: the IC50 on CDK4/CCND3 (setting [1]) was greater than 0.25 µM; at CDK2/CCNE1 (setting [2]), less than 0.025 µM; on CDK1/CCNB1 (setting [3]), greater than 0.25 µM; at CDK6/CCND1 (setting [4]) it was greater than 0.25 µM.
Consider `Cc1c(-c2nccc3cnc(Nc4ccc(S(C)(=O)=O)cc4Cl)cc23)ccc2c1cnn2CC(C)(C)O` [Ex 847, 1-(5-(7-((2-chloro-4-(methylsulfonyl)phenyl)amino)-2,6-naphthyridin-1-yl)-4-methyl-1H-indazol-1-yl)-2-methylpropan-2-ol], for which the IC50 on CDK4/CCND3 (setting [1]) was greater than 0.25 µM; at CDK2/CCNE1 (setting [9]), 0.025 to 0.25 µM; on CDK1/CCNB1 (setting [3]), greater than 0.25 µM; at CDK6/CCND1 (setting [4]), greater than 0.25 µM.
Consider `Cc1c(-c2nccc3cnc(Nc4ccc(S(C)(=O)=O)cn4)cc23)ccc2c1cnn2CC(C)(C)O` [Ex 848, 2-methyl-1-(4-methyl-5-(7-((5-(methylsulfonyl)pyridin-2-yl)amino)-2,6-naphthyridin-1-yl)-1H-indazol-1-yl)propan-2-ol], for which the IC50 on CDK4/CCND3 (setting [5]) is 0.025 to 0.25 µM; on CDK2/CCNE1 (setting [2]), less than 0.025 µM; at CDK1/CCNB1 (setting [3]), greater than 0.25 µM; at CDK6/CCND1 (setting [7]) it was 0.025 to 0.25 µM.
With `Cc1c(-c2nccc3cnc(Nc4ccc(S(=O)(=O)Nc5ncc(N6CCN(C)CC6)cn5)cc4)cc23)ccc2c1cnn2CC(C)(C)O` [Ex 849, 4-((5-(1-(2-hydroxy-2-methylpropyl)-4-methyl-1H-indazol-5-yl)-2,6-naphthyridin-3-yl)amino)-N-(5-(4-methylpiperazin-1-yl)pyrimidin-2-yl)benzenesulfonamide], the IC50 is 0.025 to 0.25 µM at CDK4/CCND3 (setting [5]), less than 0.025 µM at CDK2/CCNE1 (setting [2]), greater than 0.25 µM at CDK1/CCNB1 (setting [3]) and 0.025 to 0.25 µM at CDK6/CCND1 (setting [7]).
In the case of `Cc1c(-c2nccc3cnc(Nc4ccc(S(=O)(=O)Nc5ncc(N6CCOCC6)cn5)cc4)cc23)ccc2c1cnn2CC(C)(C)O` [Ex 850, 4-((5-(1-(2-hydroxy-2-methylpropyl)-4-methyl-1H-indazol-5-yl)-2,6-naphthyridin-3-yl)amino)-N-(5-morpholinopyrimidin-2-yl)benzenesulfonamide], the IC50 on CDK4/CCND3 (setting [1]) is greater than 0.25 µM; at CDK2/CCNE1 (setting [2]) it was less than 0.025 µM; at CDK1/CCNB1 (setting [3]), greater than 0.25 µM; on CDK6/CCND1 (setting [4]) it was greater than 0.25 µM.
With `CCOC(=O)c1cn2cc(C#Cc3nccc4cnc(Nc5ccc(S(C)(=O)=O)cc5)cc34)ccc2n1` [Ex 851, ethyl6-((7-((4-(methylsulfonyl)phenyl)amino)-2,6-naphthyridin-1-yl)ethynyl)imidazo[1,2-a]pyridine-2-carboxylate], the IC50 on CDK4/CCND3 (setting [1]), at CDK2/CCNE1 (setting [8]), at CDK1/CCNB1 (setting [3]) and at CDK6/CCND1 (setting [4]) was greater than 0.25 µM each time.
On to `C[C@@H]1CN(c2cc(Nc3cc4c(C#Cc5ccc(=O)[nH]n5)nccc4cn3)cnc2O)CCN1C` [Ex 853, (R)-6-((7-((5-(3,4-dimethylpiperazin-1-yl)-6-hydroxypyridin-3-yl)amino)-2,6-naphthyridin-1-yl)ethynyl)pyridazin-3(2H)-one absolute], for which the IC50 is greater than 0.25 µM at CDK4/CCND3 (setting [1]), 0.025 to 0.25 µM on CDK2/CCNE1 (setting [9]), greater than 0.25 µM on CDK1/CCNB1 (setting [3]) and greater than 0.25 µM on CDK6/CCND1 (setting [4]).
For `CC#Cc1nccc2cnc(Nc3ccc(S(=O)(=O)Nc4nccn4C)cc3)cc12` [Ex 854, N-(1-methyl-1H-imidazol-2-yl)-4-((5-(prop-1-yn-1-yl)-2,6-naphthyridin-3-yl)amino)benzenesulfonamide], the IC50 at CDK4/CCND3 (setting [1]) was greater than 0.25 µM; at CDK2/CCNE1 (setting [2]), less than 0.025 µM; at CDK1/CCNB1 (setting [3]), greater than 0.25 µM; at CDK6/CCND1 (setting [4]), greater than 0.25 µM.
Turning to `Cc1c(-c2nccc3cnc(Nc4ccc(S(=O)(=O)Nc5nncn5C)cc4)cc23)ccc2c1cnn2CC(C)(C)O` [Ex 855, 4-((5-(1-(2-hydroxy-2-methylpropyl)-4-methyl-1H-indazol-5-yl)-2,6-naphthyridin-3-yl)amino)-N-(4-methyl-4H-1,2,4-triazol-3-yl)benzenesulfonamide], the IC50 at CDK4/CCND3 (setting [1]) was greater than 0.25 µM; on CDK2/CCNE1 (setting [9]), 0.025 to 0.25 µM; on CDK1/CCNB1 (setting [3]), greater than 0.25 µM; at CDK6/CCND1 (setting [4]), greater than 0.25 µM.
For the molecule `Cn1ncc2cc(C#Cc3nccc4cnc(Nc5ccc(S(C)(=O)=O)cc5)cc34)ccc21` [Ex 856, 5-((1-methyl-1H-indazol-5-yl)ethynyl)-N-(4-(methylsulfonyl)phenyl)-2,6-naphthyridin-3-amine], the IC50 was greater than 0.25 µM at CDK4/CCND3 (setting [1]), 0.025 to 0.25 µM at CDK2/CCNE1 (setting [9]), greater than 0.25 µM on CDK1/CCNB1 (setting [3]) and greater than 0.25 µM at CDK6/CCND1 (setting [4]).
